Measured values taken from patent US20230242474A1, “LIPID COMPOUND AND THE COMPOSITION THEREOF” (GUANGZHOU RIBOBIO CO., LTD, priority 2020, published 2023).

Columns and labels:
[1] = type: physicochemical; conditions: Table 1; for Size (nm): lipid nanoparticle of the ionizable lipid (ionizable lipid/phospholipid/PEG lipid/structural lipid 50/10/1.5/38.5 %) with mRNA; for Encapsulated percentage (%) / PDI: lipid nanoparticle of the ionizable lipid with mRNA
BALB/c mice = assay: Transfection efficiency: in vivo bioluminescence of luciferase mRNA encapsulated by different LNP; conditions: for Average fluorescence intensity, Leg (intramuscular injection) / Average fluorescence intensity, Liver (tail vein injection): 10 μg/mice; for Total photons number, Leg: intramuscular injection
Protocol: All animals were kept in adaptive feeding for more than 7 days before experiments, free to uptake food and drink water during experimental period, illumination 12/12 h alternating light and dark, room temperature was 20-26° C., humidity was 40-70%.
Experimental method: female BALB/c mice, encapsulated luciferase mRNA with different LNP by four different administrations which included subcutaneous injection (under the armpit), tail vein injection, intraperitoneal injection, intramuscular injection (the tibialis anterior muscle of mouse hind leg); 3, 6, 24, 48 h after administration, applied in vivo fluorescence imaging system (brand: Bruker, model: XTREME) for bioluminescence detection, the specific steps were as follows: substrate preparation: took appropriate amount of substrate Luciferin (brand: Promega) and added saline to make a 10 mg/ml solution, avoided light, injected 100 μl solution into each mouse intraperitoneally. […] Put the anesthetized mouse into machine, set the bioluminescence setting and took the photos, captured the photograph and then adjusted the upper and lower values of photograph, then collected data on the concentrated distribution of fluorescence (e.g., fluorescence intensity, average photons number, and total photons number) and processed data. Statistical analysis: the in vivo imaging outcome were shown in the fluorescence intensity or average of total photons number of different animal in the same tested group, which were used to judge whether the fluorescence intensity or total photon number of luciferase mRNA encapsulated by different LNP were high or low.
The fluorescence intensity and total photons number reflects the transfection efficiency of LNP, the value is higher, referring to the efficiency of delivering encapsulated substance into cell by LNP is higher.

SMILES | Size (nm) [1] | Encapsulated percentage (%) [1] | PDI [1] | other results
CCCCCCOCC(COCCCCCC)OC(=O)CCCCCCCN(CCCCCCCC(=O)OC(COCCCCCC)COCCCCCC)CCCNc1c(NCCCNc2c(NC)c(=O)c2=O)c(=O)c1=O [A29] | 126.4 nm | 89.98% | 0.05 | 
CCCCCCCCCCCOC(=O)CCCCCN(CCO)CCCCCC(=O)OCCCCCCCCCCC [A3, reference compound] | 140.6 nm | 81.47% | 0.120 | Average fluorescence intensity, Leg (intramuscular injection) (BALB/c mice; 3 h after administration): 60.3; Average fluorescence intensity, Liver (tail vein injection) (BALB/c mice; 3 h after administration): 12.1; Average fluorescence intensity, Leg (intramuscular injection) (BALB/c mice; 6 h after administration): 69.8; Average fluorescence intensity, Liver (tail vein injection) (BALB/c mice; 6 h after administration): 11.9; Average fluorescence intensity, Leg (intramuscular injection) (BALB/c mice; 24 h after administration): 35.9; Average fluorescence intensity, Liver (tail vein injection) (BALB/c mice; 24 h after administration): 13.5
CCCCCCOCC(COCCCCCC)NC(=O)CCCCCCCN(CCCO)CCCCCCCC(=O)OC(COCCCCCC)COCCCCCC [A25] | 105.3 nm | 83.60% | 0.094 | Total photons number, Leg (BALB/c mice; 5 μg/mice, 3 h): 4.23E+08; Total photons number, Leg (BALB/c mice; 5 μg/mice, 6 h): 2.49E+08; Total photons number, Leg (BALB/c mice; 5 μg/mice, 24 h): 9.50E+07
CCCCC/C=C\C/C=C\CCCCCCCCC(CCCCCCCC/C=C\C/C=C\CCCCC)OC(=O)CCCN(C)C [MC3, reference compound] | 86.7 nm | 92.00% | 0.10 | Total photons number, Leg (BALB/c mice; 1 μg/ mice, 3 h): 3.43E+08; Total photons number, Leg (BALB/c mice; 1 μg/ mice, 6 h): 7.41E+08; Total photons number, Leg (BALB/c mice; 1 μg/ mice, 24 h): 2.86E+08
CCCCCCCCC(CCCCCCCC)OC(=O)CCCCCCCN(CCCO)CCCCCCCC(=O)OC(COCCCCCC)COCCCCCC [A17] | 109.5 nm | 92.99% | 0.1037 | 
CCCCCCOCC(COCCCCCC)OC(=O)CCCCCCCN(C)CCCNc1c(NCCCNc2c(NCCCN(C)CCCCCCCC(=O)OC(COCCCCCC)COCCCCCC)c(=O)c2=O)c(=O)c1=O [A32] | 128.7 nm | 94.19% | 0.07 | 
CCCCC/C=C/C/C=C/CCCCCCCCN(CCCO)CCCCCCCC(=O)OC(COCCCCCC)COCCCCCC [A15] |  |  |  | Total photons number, Leg (BALB/c mice; 1 μg/ mice, 6 h): 8.78E+08
CCCCC/C=C/C/C=C/CCCCCCCCN(CCO)CCCCCCCC(=O)OCC(COCCCCCC)(COCCCCCC)COCCCCCC [A20] | 77.17 nm | 97.09% | 0.121 | Total photons number, Leg (BALB/c mice; 5 μg/mice, 3 h): 5.99E+08; Total photons number, Leg (BALB/c mice; 5 μg/mice, 6 h): 5.65E+08; Total photons number, Leg (BALB/c mice; 5 μg/mice, 24 h): 2.03E+08
CCCCC/C=C/C/C=C/CCCCCCCCN(CCO)CCCCCCCC(=O)OC(COCCCCCC)COCCCCCC [A10] | 121.6 nm | 82.65% | 0.104 | Total photons number, Leg (BALB/c mice; 1 μg/ mice, 6 h): 3.17E+09
CCCCCCCCCCCOC(=O)CCCCCN(CCCO)CCCCCCCC(=O)OCC(COCCCCCC)(COCCCCCC)COCCCCCC [A22] | 86.19 nm | 96.85% | 0.049 | Total photons number, Leg (BALB/c mice; 5 μg/mice, 3 h): 4.16E+09; Total photons number, Leg (BALB/c mice; 5 μg/mice, 6 h): 5.74E+09; Total photons number, Leg (BALB/c mice; 5 μg/mice, 24 h): 1.24E+09
CCCCCCCCCCCOC(=O)CCCCCN(CCCO)CCCCCC(=O)OCCCCCCCCCCC [A6] | 171.5 nm | 87.09% | 0.190 | Average fluorescence intensity, Leg (intramuscular injection) (BALB/c mice; 3 h after administration): 60.3; Average fluorescence intensity, Liver (tail vein injection) (BALB/c mice; 3 h after administration): 11.9; Average fluorescence intensity, Leg (intramuscular injection) (BALB/c mice; 6 h after administration): 40.9; Average fluorescence intensity, Liver (tail vein injection) (BALB/c mice; 6 h after administration): 9.0; Average fluorescence intensity, Leg (intramuscular injection) (BALB/c mice; 24 h after administration): 19.1; Average fluorescence intensity, Liver (tail vein injection) (BALB/c mice; 24 h after administration): 12.2
CCCCC/C=C/C/C=C/CCCCCCCCN(CCCO)CCCCCCCC(=O)OCC(COCCCCCC)(COCCCCCC)COCCCCCC [A21] | 78.3 nm | 97.20% | 0.098 | Total photons number, Leg (BALB/c mice; 5 μg/mice, 3 h): 9.07E+08; Total photons number, Leg (BALB/c mice; 5 μg/mice, 6 h): 7.11E+08; Total photons number, Leg (BALB/c mice; 5 μg/mice, 24 h): 1.62E+08
CCCCCCCCC(CCCCCCCC)OC(=O)CCCCCCCN(CCO)CCCCCCCC(=O)OC(CCCCCCCC)CCCCCCCC [A2, reference compound] | 145.5 nm | 87.86% | 0.100 | Average fluorescence intensity, Leg (intramuscular injection) (BALB/c mice; 3 h after administration): 1146; Average fluorescence intensity, Liver (tail vein injection) (BALB/c mice; 3 h after administration): 5325.2; Average fluorescence intensity, Leg (intramuscular injection) (BALB/c mice; 6 h after administration): 1208.2; Average fluorescence intensity, Liver (tail vein injection) (BALB/c mice; 6 h after administration): 5934.7; Average fluorescence intensity, Leg (intramuscular injection) (BALB/c mice; 24 h after administration): 377.7; Average fluorescence intensity, Liver (tail vein injection) (BALB/c mice; 24 h after administration): 162.6
CCCCC/C=C/C/C=C/CCCCCCCCN(CCO)CCCCCCCC(=O)OC(CCCCCCCC)CCCCCCCC [A8, reference compound] | 142.2 nm | 76.10% | 0.120 | Average fluorescence intensity, Leg (intramuscular injection) (BALB/c mice; 3 h after administration): 1111; Average fluorescence intensity, Liver (tail vein injection) (BALB/c mice; 3 h after administration): 6850.3; Average fluorescence intensity, Leg (intramuscular injection) (BALB/c mice; 6 h after administration): 2161.8; Average fluorescence intensity, Liver (tail vein injection) (BALB/c mice; 6 h after administration): 10174.4; Average fluorescence intensity, Leg (intramuscular injection) (BALB/c mice; 24 h after administration): 1294.9; Average fluorescence intensity, Liver (tail vein injection) (BALB/c mice; 24 h after administration): 220.8
CCCCCCCCOCC(COCCCCCCCC)OC(=O)CCCCCCCN(C)CCCNc1c(NCCCN(C)CCCCCCCC(=O)OC(COCCCCCCCC)COCCCCCCCC)c(=O)c1=O [A31] |  |  |  | Total photons number, Leg (BALB/c mice; 1 μg/ mice, 3 h): 1.58E+08; Total photons number, Leg (BALB/c mice; 1 μg/ mice, 6 h): 2.65E+08; Total photons number, Leg (BALB/c mice; 1 μg/ mice, 24 h): 8.43E+07
CCCCCCCCCCCOC(=O)CCCCCN(CCO)CCCCCCCC(=O)OCC(COCCCCCC)(COCCCCCC)COCCCCCC [A23] | 74.63 nm | 97.41% | 0.054 | Total photons number, Leg (BALB/c mice; 5 μg/mice, 3 h): 4.39E+09; Total photons number, Leg (BALB/c mice; 5 μg/mice, 6 h): 2.68E+09; Total photons number, Leg (BALB/c mice; 5 μg/mice, 24 h): 8.00E+08
CCCCCCOCC(COCCCCCC)(COCCCCCC)COC(=O)CCCCCCCN(CCO)CCCCCCCC(=O)OCC(COCCCCCC)(COCCCCCC)COCCCCCC [A24] | 78.69 nm | 96.77% |  | Total photons number, Leg (BALB/c mice; 5 μg/mice, 3 h): 1.94E+08; Total photons number, Leg (BALB/c mice; 5 μg/mice, 6 h): 1.56E+08; Total photons number, Leg (BALB/c mice; 5 μg/mice, 24 h): 6.31E+07
CCCCCCCCC(CCCCCCCC)OC(=O)CCCCCCCN(CCO)CCCCCCCC(=O)OC(COCCCCCC)COCCCCCC [A13] | 96.87 nm | 95.51% | 0.146 | Total photons number, Leg (BALB/c mice; 1 μg/ mice, 6 h): 3.66E+09
CCCCCCOCC(COCCCCCC)OC(=O)CCCCCCCN(CCCCCCCC(=O)OC(COCCCCCC)COCCCCCC)CCCNc1c(NCCCNc2c(NCCCN(CCCCCCCC(=O)OC(COCCCCCC)COCCCCCC)CCCCCCCC(=O)OC(COCCCCCC)COCCCCCC)c(=O)c2=O)c(=O)c1=O [A30] | 110.1 nm | 98.14% | 0.28 | 
CCCCCCCCCCCOC(=O)CCCCCN(CCO)CCCCCCCC(=O)OC(COCCCCCC)COCCCCCC [A11] |  |  |  | Total photons number, Leg (BALB/c mice; 1 μg/ mice, 6 h): 1.33E+09
CCCCCCOCC(COCCCCCC)OC(=O)CCCCCCCN(CCCO)CCCCCCCCCCCC(=O)OC(COCC)COCC [A26] | 120.3 nm | 83.56% | 0.064 | 
